This note sets out measurements from ChEMBL document CHEMBL6153089, “Design, Synthesis, and Biological Evaluation of Thieno[3,2-d]pyrimidine Derivatives as the First Bifunctional PI3Kδ Isoform Selective/Bromodomain and Extra-Terminal Inhibitors” (J Med Chem, 2025).

Data set [1] addresses PI3-kinase p110-delta/p85-alpha (Homo sapiens) (UniProt P27986+O00329). As to the kind of experiment: Inhibition of human p110delta/p85alpha at 1 uM relative to control. The class given is protein-complex assay.
The test system of data set [2] is SUD4. As to the kind of experiment: Induction of apoptosis in human SU-DHL-4 cells assessed as necrotic cells at 1 uM incubated for 24 hrs by Annexin V-FITC/PI staining based flow cytometric analysis (reference value: 0.642 %). It counts as functional.
Data set [3] addresses Phosphatidylinositol 4-phosphate 5-kinase type-1 gamma (Homo sapiens) (UniProt O60331). Briefly: Inhibition of human PIP5K1gamma at 1 uM relative to control.
The subject of data set [4] is SU-DHL-6. Briefly: Induction of apoptosis in human SU-DHL-6 cells assessed as early apoptotic cells at 0.5 uM incubated for 24 hrs by Annexin V-FITC/PI staining based flow cytometric analysis (reference value: 32.1 %). It counts as functional.
Data set [5] addresses Bromodomain testis-specific protein (Homo sapiens, UniProt Q58F21). Briefly: Inhibition of His-tagged BRDT-BD1 (unknown origin) incubated for 30 mins in presence of ATP by Alphascreen assay. On the technique in general: In Alpha technology, singlet oxygen from a donor bead excites a nearby acceptor bead.
Data set [6] in a line: Toxicity in female BALB/c mouse model xenografted with human SU-DHL-6 cells assessed as effect on liver histopathology at 20 mg/kg, po administered once daily via gavage for 15 days by H and E staining based analysis. The note with it: in vivo, 360 h, time 15 day. The class given is organism-based. For orientation: Xenograft models place foreign cells or tissue in a host animal.

The subject of data set [7] is SU-DHL-6. As to the kind of experiment: Induction of apoptosis in human SU-DHL-6 cells assessed as necrotic cells at 0.25 uM incubated for 24 hrs by Annexin V-FITC/PI staining based flow cytometric analysis (reference value: 0.246 %). It counts as functional. A general note: In flow cytometry, cells or beads pass a laser one at a time.
The test system of data set [8] is SU-DHL-6. As to the kind of experiment: Downregulation of c-Myc expression in human SU-DHL-6 cells at 0.25 to 1 uM incubated for 12 hrs by Western blot analysis. The class given is functional, cell-based. The following applies: dose 0.25-1 µM.
Data set [9] relates to SUD4. Briefly: Induction of apoptosis in human SU-DHL-4 cells assessed as late apoptotic cells at 0.5 uM incubated for 24 hrs by Annexin V-FITC/PI staining based flow cytometric analysis (reference value: 6.74 %). The class given is functional.
Data set [10] concerns SUD4. Briefly: Induction of apoptosis in human SU-DHL-4 cells assessed as late apoptotic cells at 1 uM incubated for 24 hrs by Annexin V-FITC/PI staining based flow cytometric analysis (reference value: 6.74 %). The class given is functional.
Data set [11] is described as follows: Tmax in female BALB/c mouse at 20 mg/kg, po measured after 24 hrs by LC-MS/MS analysis. The note with it: in vivo. The class given is ADME, organism-based.
The subject of data set [12] is PI3-kinase p110-alpha/p85-alpha (Homo sapiens), P27986+P42336 [E542K]. Briefly: Inhibition of human p110alpha-E545K mutant/p85alpha at 1 uM relative to control. It counts as protein-complex assay.
For data set [13], the target named is Bromodomain-containing protein 2 (Homo sapiens, UniProt P25440). As to the kind of experiment: Inhibition of His-tagged BRD2-BD1 (unknown origin) incubated for 30 mins in presence of ATP by Alphascreen assay.
Chain of Bromodomain-containing protein 2 (P25440 whole entry, canonical isoform): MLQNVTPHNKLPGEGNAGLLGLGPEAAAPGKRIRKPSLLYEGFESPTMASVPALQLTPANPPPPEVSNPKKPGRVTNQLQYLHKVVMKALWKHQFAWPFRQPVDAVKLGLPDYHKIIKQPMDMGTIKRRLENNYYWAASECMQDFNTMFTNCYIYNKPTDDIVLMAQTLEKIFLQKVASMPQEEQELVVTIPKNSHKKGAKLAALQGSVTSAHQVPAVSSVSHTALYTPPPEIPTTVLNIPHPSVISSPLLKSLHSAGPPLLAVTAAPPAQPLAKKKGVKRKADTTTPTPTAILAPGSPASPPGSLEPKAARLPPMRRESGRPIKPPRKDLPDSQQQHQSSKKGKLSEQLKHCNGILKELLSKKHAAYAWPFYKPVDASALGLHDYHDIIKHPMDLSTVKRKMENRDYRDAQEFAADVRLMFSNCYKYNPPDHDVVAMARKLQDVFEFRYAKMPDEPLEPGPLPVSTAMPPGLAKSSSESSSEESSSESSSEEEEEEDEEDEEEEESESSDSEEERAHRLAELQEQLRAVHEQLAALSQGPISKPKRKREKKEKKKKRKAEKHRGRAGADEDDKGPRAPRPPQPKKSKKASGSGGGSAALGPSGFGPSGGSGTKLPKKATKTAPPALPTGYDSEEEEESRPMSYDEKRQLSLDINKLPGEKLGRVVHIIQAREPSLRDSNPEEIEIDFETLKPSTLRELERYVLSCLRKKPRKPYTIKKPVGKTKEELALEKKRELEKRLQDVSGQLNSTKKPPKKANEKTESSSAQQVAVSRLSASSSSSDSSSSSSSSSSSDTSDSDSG
Data set [14] concerns the target Phosphatidylinositol 4,5-bisphosphate 3-kinase catalytic subunit gamma isoform (Homo sapiens, UniProt P48736). Briefly: Inhibition of human PI3Kgamma at 1 uM relative to control.
Data set [15] relates to SU-DHL-6. As to the kind of experiment: Induction of apoptosis in human SU-DHL-6 cells assessed as decrease in Bcl-2 protein expression at 0.25 to 1 uM incubated for 12 hrs by Western blot analysis. The following applies: dose 0.25-1 µM. It counts as functional, cell-based.

Calls of active or inactive are those of the source. No cut-off for these calls is given here.

Chain of Phosphatidylinositol 4,5-bisphosphate 3-kinase catalytic subunit gamma isoform (P48736 whole entry, looked up, canonical isoform): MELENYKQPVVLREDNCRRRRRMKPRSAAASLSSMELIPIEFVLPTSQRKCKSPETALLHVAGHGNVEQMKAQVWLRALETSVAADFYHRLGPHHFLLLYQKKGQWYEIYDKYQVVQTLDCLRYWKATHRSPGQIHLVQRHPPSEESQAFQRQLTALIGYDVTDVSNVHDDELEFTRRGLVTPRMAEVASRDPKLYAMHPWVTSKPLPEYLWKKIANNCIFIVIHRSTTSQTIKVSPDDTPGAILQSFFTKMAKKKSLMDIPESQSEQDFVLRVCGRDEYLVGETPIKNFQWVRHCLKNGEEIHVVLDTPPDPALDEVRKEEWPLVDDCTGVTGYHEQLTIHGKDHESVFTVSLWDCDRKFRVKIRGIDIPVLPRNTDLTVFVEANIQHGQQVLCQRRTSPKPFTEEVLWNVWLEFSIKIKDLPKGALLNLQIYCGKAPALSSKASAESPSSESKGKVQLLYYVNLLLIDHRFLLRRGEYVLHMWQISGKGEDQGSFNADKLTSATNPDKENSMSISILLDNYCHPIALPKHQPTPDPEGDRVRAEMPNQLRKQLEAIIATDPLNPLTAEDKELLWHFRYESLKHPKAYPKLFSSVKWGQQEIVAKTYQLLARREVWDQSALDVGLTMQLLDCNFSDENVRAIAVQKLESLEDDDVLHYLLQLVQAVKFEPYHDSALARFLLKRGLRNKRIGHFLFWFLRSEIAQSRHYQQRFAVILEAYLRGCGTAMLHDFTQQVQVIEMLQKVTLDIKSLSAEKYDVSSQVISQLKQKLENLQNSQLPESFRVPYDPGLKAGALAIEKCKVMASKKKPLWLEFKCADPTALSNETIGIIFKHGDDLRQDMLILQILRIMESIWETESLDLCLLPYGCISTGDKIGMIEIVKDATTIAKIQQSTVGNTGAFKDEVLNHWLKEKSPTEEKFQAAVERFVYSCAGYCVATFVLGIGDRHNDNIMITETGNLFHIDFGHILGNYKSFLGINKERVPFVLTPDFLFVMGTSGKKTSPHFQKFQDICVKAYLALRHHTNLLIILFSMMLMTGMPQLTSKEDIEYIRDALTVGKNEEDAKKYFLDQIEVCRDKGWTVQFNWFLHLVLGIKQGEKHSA
Chain of Phosphatidylinositol 4-phosphate 5-kinase type-1 gamma (Homo sapiens) (O60331 whole entry): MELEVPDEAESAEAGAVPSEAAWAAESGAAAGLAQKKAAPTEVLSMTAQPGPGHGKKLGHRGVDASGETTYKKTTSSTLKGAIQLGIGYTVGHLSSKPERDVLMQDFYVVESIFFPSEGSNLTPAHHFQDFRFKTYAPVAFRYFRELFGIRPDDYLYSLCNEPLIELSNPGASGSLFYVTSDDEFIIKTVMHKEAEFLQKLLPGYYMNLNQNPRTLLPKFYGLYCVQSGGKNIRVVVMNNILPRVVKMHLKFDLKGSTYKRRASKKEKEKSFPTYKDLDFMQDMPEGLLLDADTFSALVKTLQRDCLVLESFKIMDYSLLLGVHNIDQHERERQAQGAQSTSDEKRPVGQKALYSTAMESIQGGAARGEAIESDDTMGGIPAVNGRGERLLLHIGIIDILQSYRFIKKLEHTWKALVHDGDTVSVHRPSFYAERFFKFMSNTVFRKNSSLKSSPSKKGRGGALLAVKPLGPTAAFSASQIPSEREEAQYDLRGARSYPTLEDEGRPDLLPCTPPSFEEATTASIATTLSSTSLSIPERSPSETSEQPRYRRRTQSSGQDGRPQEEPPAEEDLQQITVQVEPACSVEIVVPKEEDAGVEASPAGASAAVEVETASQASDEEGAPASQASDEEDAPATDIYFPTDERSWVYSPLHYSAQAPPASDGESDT

As for `Cn1cc(-c2nc(N3CCOCC3)c3sc(CN4CCC(C(C)(C)O)CC4)cc3n2)c2cc[nH]c2c1=O`, the inhibition amounted to 94.1% in data set [1], 75.7% in data set [3], 17.3% in data set [12] and 57.2% in data set [14]. Moreover, the Activity in the data set on SUD4 [2] was 0.505%; with SU-DHL-6 [4] it was 41.8%; in [6] it was “Non-toxic”; in the data set on SU-DHL-6 [7] it was 0.481%; in the data set on SUD4 [9], 17.3%; in the data set on SUD4 [10], 26.2%. The Activity entry in the data set on SU-DHL-6 [15] is reported as “Active; Modest Effect Observed”. Besides, the IC50 came to 0.046 µM in data set [5] and 0.018 µM in [13]. Also, the result with SU-DHL-6 [8] was Active. For the same compound, in data set [11], the time of peak concentration (Tmax) came to 30 min.

The term inhibition denotes the relative decrease from the control value, in per cent. Read a high inhibition as a strong effect. Usually IC50 stands for the concentration that gives 50% inhibition. Usually Tmax stands for the time at which the peak concentration occurs.
